The results in this text go back to patent publication US8748417B2, “Amino-pyrrolidine-azetidine diamides as monoacylglycerol lipase inhibitors” (Janssen Pharmaceutica, NV, priority 2010, dated 2014).

The target in this assay is T1, purified wild type MGL (wt-MGLL 6H-11-313) (Homo sapiens, UniProt Q99685).
T1 construct: purified wild type MGL (wt-MGLL 6H-11-313)
T1 sequence (Q99685 1-303): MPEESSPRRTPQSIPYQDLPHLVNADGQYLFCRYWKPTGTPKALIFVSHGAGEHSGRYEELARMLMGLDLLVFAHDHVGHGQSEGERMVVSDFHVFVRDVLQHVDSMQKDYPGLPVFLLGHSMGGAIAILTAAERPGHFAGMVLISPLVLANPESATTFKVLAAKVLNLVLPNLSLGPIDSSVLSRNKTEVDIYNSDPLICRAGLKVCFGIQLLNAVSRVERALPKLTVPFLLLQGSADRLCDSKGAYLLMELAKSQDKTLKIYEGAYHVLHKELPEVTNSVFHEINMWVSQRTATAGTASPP
Kind of assay: MGL enzyme activity assay (4MU-B cleavage), wild type MGL. Type of assay: biochemical. The settings on record: wild type MGL 5 nM, 4MU-B 10 μM, 37° C.; read-out: MGL wild type inh IC50. How it is done:
All rate-based assays were performed in black 384-well polypropylene PCR microplates (Abgene) in a total volume of 30 μL. Substrate 4-methylumbelliferyl butyrate (4MU-B; Sigma) and either purified mutant MGL (mut-MGLL 11-313 L179S L186S) or purified wild type MGL (wt-MGLL 6H-11-313) were diluted separately into 20 mM PIPES buffer (pH=7.0), containing 150 mM NaCl and 0.001% Tween 20. Compounds of Formula (I) were pre-dispensed (50 nL) into the assay plate using a Cartesian Hummingbird prior to adding 4MU-B (25 μL of 1.2× solution to a final concentration of 10 μM) followed by enzyme (5 μL of a 6× solution to a final concentration of 5 nM) to initiate the reaction. Final compound concentrations ranged from 17 to 0.0003 μM. The fluorescence change due to 4MU-B cleavage was monitored with excitation and emission wavelengths of 335 and 440 nm, respectively, and a bandwidth of 10 nm (Safire^2, Tecan) at 37° C. for 5 min.
The IC50 values for the following compounds were determined using Microsoft Office Excel from a fit of the equation to the concentration-response plot of the fractional activity as a function of inhibitor concentration.
Regarding `O=C(c1ccccc1)N1CC[C@H](NC2CN(C(=O)c3sc4cc(C(F)(F)F)ccc4c3-c3ccccc3)C2)C1` [Cpd 74, (3S)-1-(Phenylcarbonyl)-N-(1-{[3-phenyl-6-(trifluoromethyl)-1-benzothiophen-2-yl]carbonyl}azetidin-3-yl)pyrrolidin-3-amine], the IC50 came out at 277 nM.

In the case of `O=C(c1ccccc1)N1CC[C@H](NC2CN(C(=O)c3sc4cc(C(F)(F)F)ccc4c3C3CC3)C2)C1` [Cpd 75, (3S)-N-(1-{[3-Cyclopropyl-6-(trifluoromethyl)-1-benzothiophen-2-yl]carbonyl}azetidin-3-yl)-1-(phenylcarbonyl)pyrrolidin-3-amine], the 50% inhibitory concentration (IC50) amounted to 210 nM.

Regarding `O=C(c1ccccc1)N1CC[C@H](NC2CN(C(=O)c3sc4cc(F)ccc4c3C3CCC3)C2)C1` [Cpd 79, (3S)-N-{1-[(3-Cyclobutyl-6-fluoro-1-benzothiophen-2-yl)carbonyl]azetidin-3-yl}-1-(phenylcarbonyl)pyrrolidin-3-amine], the IC50 came out at 281 nM.

For `Cc1c(C(=O)N2CC(N(C=O)[C@H]3CCN(C(=O)c4ccccc4)C3)C2)sc2ccc(Cl)cc12` [Cpd 81, N-[1-[(5-Chloro-3-methyl-1-benzothiophen-2-yl)carbonyl]azetidin-3-yl]-N-[(3S)-1-(phenylcarbonyl)pyrrolidin-3-yl]formamide], the IC50 worked out at 4880 nM.

Consider `Cc1c(C(=O)N2CC(N(C=O)[C@H]3CCN(C(=O)c4nccs4)C3)C2)sc2ccc(Cl)cc12` [Cpd 82, N-{1-[(5-Chloro-3-methyl-1-benzothiophen-2-yl)carbonyl]azetidin-3-yl}-N-[(3S)-1-(1,3-thiazol-2-ylcarbonyl)pyrrolidin-3-yl]formamide], for which the IC50 is 231 nM.

Consider `Cc1c(C(=O)N2CC(N(C=O)[C@H]3CCN(C(=O)c4cscn4)C3)C2)sc2ccc(Cl)cc12` [Cpd 83, N-{1-[(5-Chloro-3-methyl-1-benzothiophen-2-yl)carbonyl]azetidin-3-yl}-N-[(3S)-1-(1,3-thiazol-4-ylcarbonyl)pyrrolidin-3-yl]formamide], for which the IC50 was found to be 2440 nM.

For the compound `Cc1c(C(=O)N2CC(N[C@H]3CCN(C(=O)c4ccccc4)C3)C2)sc2cc(F)ccc12` [Cpd 86, (3S)-N-{1-[(6-Fluoro-3-methyl-1-benzothiophen-2-yl)carbonyl]azetidin-3-yl}-1-(phenylcarbonyl)pyrrolidin-3-amine], the IC50 worked out at 298 nM.

As for `Cc1c(C(=O)N2CC(N[C@H]3CCN(C(=O)c4cscn4)C3)C2)sc2cc(F)ccc12` [Cpd 88, (3S)-N-{1-[(6-Fluoro-3-methyl-1-benzothiophen-2-yl)carbonyl]azetidin-3-yl}-1-(1,3-thiazol-4-ylcarbonyl)pyrrolidin-3-amine], the IC50 was 152 nM.

Turning to `O=C(c1ccccc1)N1CC[C@H](NC2CN(C(=O)c3sc4cc(C(F)(F)F)ccc4c3F)C2)C1` [Cpd 89, (3S)-N-(1-{[3-Fluoro-6-(trifluoromethyl)-1-benzothiophen-2-yl]carbonyl}azetidin-3-yl)-1-(phenylcarbonyl)pyrrolidin-3-amine], the IC50 came to 154 nM.

In the case of `Cc1c(C(=O)N2CC(N[C@H]3CCN(C(=O)c4nccs4)C3)C2)sc2ccc(-c3ccc(C(F)(F)F)cc3)cc12` [Cpd 91, (3S)-N-[1-({3-Methyl-5-[4-(trifluoromethyl)phenyl]-1-benzothiophen-2-yl}carbonyl)azetidin-3-yl]-1-(1,3-thiazol-2-ylcarbonyl)pyrrolidin-3-amine], the IC50 was less than 5 nM.

`O=C(c1cc2ccc(Br)cc2s1)N1CC(N[C@H]2CCN(C(=O)c3nccs3)C2)C1` [Cpd 95, (3S)-N-{1-[(6-Bromo-1-benzothiophen-2-yl)carbonyl]azetidin-3-yl}-1-(1,3-thiazol-2-ylcarbonyl)pyrrolidin-3-amine]: the IC50 turned out to be 410 nM.

For `O=C(c1cscn1)N1CC[C@H](NC2CN(C(=O)c3cc4ccc(Br)cc4s3)C2)C1` [Cpd 96, (3S)-N-{1-[(6-Bromo-1-benzothiophen-2-yl)carbonyl]azetidin-3-yl}-1-(1,3-thiazol-4-ylcarbonyl)pyrrolidin-3-amine], the IC50 amounted to 1050 nM.

Take `O=C(c1cc2cc(Br)ccc2s1)N1CC(N[C@H]2CCN(C(=O)c3nccs3)C2)C1` [Cpd 97, (3S)-N-{1-[(5-Bromo-1-benzothiophen-2-yl)carbonyl]azetidin-3-yl}-1-(1,3-thiazol-2-ylcarbonyl)pyrrolidin-3-amine]: the IC50 came to 133 nM.

Turning to `O=C(c1cscn1)N1CC[C@H](NC2CN(C(=O)c3cc4cc(Br)ccc4s3)C2)C1` [Cpd 98, (3S)-N-{1-[(5-Bromo-1-benzothiophen-2-yl)carbonyl]azetidin-3-yl}-1-(1,3-thiazol-4-ylcarbonyl)pyrrolidin-3-amine], the IC50 stood at 3100 nM.

Take `O=C(c1ccccc1)N1CC[C@H](NC2CN(C(=O)c3cc4cc(Br)ccc4o3)C2)C1` [Cpd 107, (3S)-N-{1-[(5-Bromo-1-benzofuran-2-yl)carbonyl]azetidin-3-yl}-1-(phenylcarbonyl)pyrrolidin-3-amine]: the IC50 was more than 16700 nM.

For the compound `O=C(c1ccc2c(-c3ccccc3)ncnc2c1)N1CC(N[C@H]2CCN(C(=O)c3ccccc3)C2)C1` [Cpd 108, (3S)-1-(Phenylcarbonyl)-N-{1-[(4-phenylquinazolin-7-yl)carbonyl]azetidin-3-yl}pyrrolidin-3-amine], the IC50 came to 1030 nM.

In the case of `O=C(c1ccc2c(-c3ccc(C(F)(F)F)cc3)ncnc2c1)N1CC(N[C@H]2CCN(C(=O)c3ccccc3)C2)C1` [Cpd 109, (3S)-1-(Phenylcarbonyl)-N-[1-({4-[4-(trifluoromethyl)phenyl]quinazolin-7-yl}carbonyl)azetidin-3-yl]pyrrolidin-3-amine], the half-maximal inhibitory concentration (IC50) was determined as 857 nM.

On to `O=C(c1ccc2c(-c3ccccc3)ncnc2c1)N1CC(N[C@H]2CCN(C(=O)c3nccs3)C2)C1` [Cpd 110, (3S)-N-{1-[(4-Phenylquinazolin-7-yl)carbonyl]azetidin-3-yl}-1-(1,3-thiazol-2-ylcarbonyl)pyrrolidin-3-amine], for which the half-maximal inhibitory concentration (IC50) was determined as 311 nM.

Turning to `O=C(c1ccc2c(-c3ccc(C(F)(F)F)cc3)ncnc2c1)N1CC(N[C@H]2CCN(C(=O)c3nccs3)C2)C1` [Cpd 111, (3S)-1-(1,3-Thiazol-2-ylcarbonyl)-N-[1-({4-[4-(trifluoromethyl)phenyl]quinazolin-7-yl}carbonyl)azetidin-3-yl]pyrrolidin-3-amine], the 50% inhibitory concentration (IC50) was found to be 179 nM.

`O=C(c1ccc2c(-c3ccccc3)ncnc2c1)N1CC(N[C@H]2CCN(C(=O)c3cscn3)C2)C1` [Cpd 112, (3S)-N-{1-[(4-Phenylquinazolin-7-yl)carbonyl]azetidin-3-yl}-1-(1,3-thiazol-4-ylcarbonyl)pyrrolidin-3-amine]: the IC50 worked out at 1660 nM.

Consider `O=C(c1ccc2c(cnn2-c2ccccc2)c1)N1CC(N[C@H]2CCN(C(=O)c3nccs3)C2)C1` [Cpd 120, (3S)-N-{1-[(1-Phenyl-1H-indazol-5-yl)carbonyl]azetidin-3-yl}-1-(1,3-thiazol-2-ylcarbonyl)pyrrolidin-3-amine], for which the IC50 worked out at 372 nM.

Consider `O=C(c1ccccc1)N1CC[C@H](NC2CN(C(=O)c3cc4cc(-c5ccccc5)ccc4o3)C2)C1` [Cpd 121, (3S)-N-{1-[(5-Phenyl-1-benzofuran-2-yl)carbonyl]azetidin-3-yl}-1-(phenylcarbonyl)pyrrolidin-3-amine], for which the IC50 is 1750 nM.

On to `Cc1c(C(=O)N2CC(N[C@H]3CCN(C(=O)c4cscn4)C3)C2)sc2ccc(-c3cccc(C(F)(F)F)c3)cc12` [Cpd 125, (3S)-N-[1-({3-Methyl-5-[3-(trifluoromethyl)phenyl]-1-benzothiophen-2-yl}carbonyl)azetidin-3-yl]-1-(1,3-thiazol-4-ylcarbonyl)pyrrolidin-3-amine], for which the IC50 was less than 5 nM.

Regarding `O=C(c1ccc2nc(-c3ccccc3)sc2c1)N1CC(N[C@H]2CCN(C(=O)c3nccs3)C2)C1` [Cpd 133, (3S)-N-{1-[(2-Phenyl-1,3-benzothiazol-6-yl)carbonyl]azetidin-3-yl}-1-(1,3-thiazol-2-ylcarbonyl)pyrrolidin-3-amine], the IC50 was 145 nM.

As to `Cc1nc(-c2ccccc2F)sc1C(=O)N1CC(N[C@H]2CCN(C(=O)c3nccs3)C2)C1` [Cpd 134, (3S)-N-(1-{[2-(2-Fluorophenyl)-4-methyl-1,3-thiazol-5-yl]carbonyl}azetidin-3-yl)-1-(1,3-thiazol-2-ylcarbonyl)pyrrolidin-3-amine], the IC50 was 2930 nM.

For the compound `Cc1nc(-c2ccc(F)cc2)sc1C(=O)N1CC(N[C@H]2CCN(C(=O)c3nccs3)C2)C1` [Cpd 135, (3S)-N-(1-{[2-(4-Fluorophenyl)-4-methyl-1,3-thiazol-5-yl]carbonyl}azetidin-3-yl)-1-(1,3-thiazol-2-ylcarbonyl)pyrrolidin-3-amine], the IC50 is 1130 nM.

Consider `Cc1nc(-c2cccc(Cl)c2)sc1C(=O)N1CC(N[C@H]2CCN(C(=O)c3nccs3)C2)C1` [Cpd 136, (3S)-N-(1-{[2-(3-Chlorophenyl)-4-methyl-1,3-thiazol-5-yl]carbonyl}azetidin-3-yl)-1-(1,3-thiazol-2-ylcarbonyl)pyrrolidin-3-amine], for which the IC50 amounted to 165 nM.

Broadly, the IC50 is the point on the concentration scale where inhibition reaches its midpoint.
